For assay [1], the system named is rat limb bones (PTH-induced bone resorption). The experiment in a line: Bone resorption assay (45Ca release from rat limb bones), PTH-induced. The conditions noted are these: 48 h; for IC50: Rattus norvegicus, read-out: Inhibition of Bone Resorption, PTH-Induced (IC50). Format: cell-based, rat (Sprague-Dawley CD). As for the experimental part: (§1) The ability of the compounds of the invention to modify the process of bone resorption is evaluated in the bone resorption assay measuring ^45 Ca release from rat limb bones.
(§2) Limb bone preparation. Timed pregnant Sprague-Dawley CD® rats (Charles River) are administered 100 μCi ^45 CaCl2 (NEN calcium -45 NEZ-013) in 100 μl of 0.9% saline, subcutaneously, on day 18 of gestation. The rats are sacrificed the following day by CO2 asphyxiation. The fetuses are removed and the right forelimbs excised and placed in a Petri dish containing ice cold explant medium consisting of modified BGJb -Fitton Jackson media (custom formulation, Gibco No. 78-0088) adjusted to pH 7.3 to which 10 mM TES is added. The modified BGJb media is obtained without salts, glucose or bicarbonate and is supplemented before use with 0.1 mM MgCl2, 1.25 mM CaCl2, 5.3 mM KCl, 0.7 mM MgSO4, 130 mM NaCl, 1.0 mM NaH2 PO4, 1 g/L glucose, 50 mg/L Na acetate and 100 U/ml penicillin G. The medium is sterilized by passage through a 0.2 μ M filter (Nalge). Under a dissecting microscope, the bones are gently cleaned of adherent tissue and the cartilaginous ends removed. Incubation and drug treatment. The midshafts are placed, individually, on 3×3 mm squares of filter paper (Gelman GN-6 metricel filters; […] pore size) which rest on stainless steel screens in wells of 24-well culture plates containing 0.5 mL of preincubation medium. The preincubation medium is brought to 37° C. prior to transfer of bones. The preincubation medium consists of the modified BGJb medium (with salts and glucose as above), pH 7.3, containing 29 mM NaHCO3. After incubation for 18-24 hours at 37° C. in 5% CO2, the bones are transferred on their screen/filter paper supports to new plates containing, in a total volume of 0.5 mL/well at 37° C., the test compound diluted in preincubation medium supplemented with 15% heat inactivated horse serum (Gibco No. 230-6050), pH 7.3, with a bone resorption stimulating agent (e.g. parathyroid hormone [PTH] or interleukin-1 [IL-1]). For compounds that require nonaqueous solvents, dilutions are made from the appropriate stock solution with medium. In these instances, basal and bone resorption stimulated controls exposed to an equivalent concentration of the vehicle are included. An additional group of bones that have been subjected to boiling for 1 hour (kill control) are used to establish background, non cell mediated, exchange of ^45 Ca. The right ulna and radius from each fetus are used. Both bones are subjected to the same treatment and each treatment group consists of bones from 4 or more fetuses. Treatments are randomly assigned using a preclinical statistics program (PS-ALLOC). After a 48 hour incubation at 37° C. in 5% CO2, the bones are removed from the medium and extracted in 0.5 mL of 0.1N HCl for 1 or more days. Duplicate 150 μL aliquots of the incubation medium and the bone extract are analyzed for ^45 Ca radioactivity in 5 mL of liquid scintillation cocktail.
(§3) The percentage of bone ^45 Ca released into the medium is determined as follows: [formula] Results are normally expressed as the ratio of the percent ^45 Ca release of the experimental group versus the appropriate vehicle control, or as an IC50 value.

For assay [2], the system named is rat limb bones (IL-1 induced bone resorption). Put plainly: Bone resorption assay (45Ca release from rat limb bones), IL-1 induced. In kind it is cell-based, rat (Sprague-Dawley CD). As to conditions: 48 h; for IC50: Rattus norvegicus, read-out: Inhibition of Bone Resorption, IL-1 Induced (IC50). As to the method: as §1, §2, §3

In brackets after ≈: the same amount, converted by molar mass.

On to `S=C(Nc1ccccc1)N1CCc2[nH]c3c(cnc4cc(Cl)ccc43)c2C1` [Example 14, 3-Chloro-7,9,10,11-tetrahydro-N-phenyl-8H-pyrido-[3',4':4,5]pyrrolo[3,2-c]quinoline-8-carbothioamide], for which, in assay [1], the “Inhibition of Bone Resorption, PTH-Induced (activity in words)” value is reported as “Active” and the IC50 was 1.2 µg/mL (≈ 3.05 µM). For the same compound, in assay [2], the “Inhibition of Bone Resorption, IL-1 Induced (activity in words)” value is “Active” and the IC50 came out at 1.21 µg/mL (≈ 3.08 µM).
As for `S=C(NCc1ccccc1)N1CCc2[nH]c3c(cnc4cc(Cl)ccc43)c2C1` [Example 18, 3-Chloro-7,9,10,11-tetrahydro-N-(phenylmethyl)-8H-pyrido-[3',4':4,5]pyrrolo[3,2-c]quinoline-8-carbothioamide], in assay [2], the “Inhibition of Bone Resorption, IL-1 Induced (activity in words)” value is given as “Active” and the half-maximal inhibitory concentration (IC50) stood at 2.39 µg/mL (≈ 5.87 µM).
Consider `COc1cccc(NC(=O)N2CCc3[nH]c4c(cnc5cc(Cl)ccc54)c3C2)c1` [Example 20, 3-Chloro-7,9,10,11-tetrahydro-N-(3-methoxyphenyl)-8H-pyrido-[3',4':4,5]pyrrolo[3,2-c]quinoline-8-carboxamide], for which, in assay [1], the “Inhibition of Bone Resorption, PTH-Induced (activity in words)” value is “Active” and the IC50 was 0.059 µg/mL (≈ 0.145 µM). Further, in assay [2], the “Inhibition of Bone Resorption, IL-1 Induced (activity in words)” value is listed as “Active” and the 50% inhibitory concentration (IC50) was 0.0088 µg/mL (≈ 0.0216 µM).
As to `O=C(NCc1ccccc1)N1CCc2[nH]c3c(cnc4cc(Cl)ccc43)c2C1` [Example 16, 3-Chloro-7,9,10,11-tetrahydro-N-(phenylmethyl)-8H-pyrido-[3',4':4,5]pyrrolo[3,2-c]quinoline-8-carboxamide], in assay [1], the “Inhibition of Bone Resorption, PTH-Induced (activity in words)” value is “Active” and the IC50 turned out to be 2.52 µg/mL (≈ 6.45 µM). Further, in assay [2], the “Inhibition of Bone Resorption, IL-1 Induced (activity in words)” value is reported as “Active” and the IC50 stood at 6.22 µg/mL (≈ 15.9 µM).
With `O=C(NC(=S)N1CCc2[nH]c3c(cnc4cc(Cl)ccc43)c2C1)c1ccccc1` [Example 17], in assay [1], the “Inhibition of Bone Resorption, PTH-Induced (activity in words)” value was “Active” and the 50% inhibitory concentration (IC50) was 1.16 µg/mL (≈ 2.76 µM). In assay [2], the “Inhibition of Bone Resorption, IL-1 Induced (activity in words)” value is “Active” and the 50% inhibitory concentration (IC50) stood at 1.65 µg/mL (≈ 3.92 µM).
As to `CCOC(=O)c1ccc(NC(=O)N2CCc3[nH]c4c(cnc5cc(Cl)ccc54)c3C2)cc1` [Example 15, 4-[[(3-Chloro-7,9,10,11-tetrahydro-8H-pyrido[3',4':4,5]pyrrolo-[3,2-c]quinoline-8-yl)carbonyl]amino]benzoic acid ethyl ester], in assay [1], the “Inhibition of Bone Resorption, PTH-Induced (activity in words)” value is “Active” and the IC50 was determined as 5.5 µg/mL (≈ 12.3 µM).
On to `COc1ccc(S(=O)(=O)N2CCc3[nH]c4c(cnc5cc(Cl)ccc54)c3C2)cc1` [Example 21, 3-Chloro-8,9,10,11-tetrahydro-8-[(4-methoxyphenyl)sulfonyl]-7H-pyrido[3',4':4,5]pyrrolo[3,2-c]quinoline], for which, in assay [2], the “Inhibition of Bone Resorption, IL-1 Induced (activity in words)” value is “Active” and the IC50 was found to be 8.48 µg/mL (≈ 19.8 µM).
Take `O=C(NC(=O)N1CCc2[nH]c3c(cnc4cc(Cl)ccc43)c2C1)c1ccccc1` [Example 13, N-Benzoyl-3-chloro-7,9,10,11-tetrahydro-8H-pyrido-[3',4':4,5]pyrrolo[3,2-c]quinoline-8-carboxamide]: in assay [1], the “Inhibition of Bone Resorption, PTH-Induced (activity in words)” value was “Active” and the IC50 turned out to be 0.944 µg/mL (≈ 2.33 µM). For the same compound, in assay [2], the “Inhibition of Bone Resorption, IL-1 Induced (activity in words)” value is “Active” and the half-maximal inhibitory concentration (IC50) was 1.71 µg/mL (≈ 4.22 µM).

For the origin of these results see patent US5281608A, “Substituted tetrahydropyrido[3',4':4,5]-pyrrolo[3,2-c]quinolines” (American Home Products Corporation, priority 1992, dated 1994).
